Changes are numbered by the printed parent chain. pEC50: −log10 of the molar value. Several values for one entry are separate records, joined by “and”; a condition that tells them apart may be missing. Equal values may be shown once. Read-outs that look alike come from different tables or passages of the source.
Key:
OX2R F227A = molecular target: T1, OX2R F227A (Homo sapiens, UniProt O43614, F227A); assay: β-arrestin PathHunter assay, OX2R F227A; format: cell-based; conditions: for beta-arrestin recruitment fold change: F227A, listed as OxB
T1 construct: expressed in transfected cells; host or cells: CHO-K1 stably expressing EA β-arrestin2
T1 sequence (O43614 1-444 F227A): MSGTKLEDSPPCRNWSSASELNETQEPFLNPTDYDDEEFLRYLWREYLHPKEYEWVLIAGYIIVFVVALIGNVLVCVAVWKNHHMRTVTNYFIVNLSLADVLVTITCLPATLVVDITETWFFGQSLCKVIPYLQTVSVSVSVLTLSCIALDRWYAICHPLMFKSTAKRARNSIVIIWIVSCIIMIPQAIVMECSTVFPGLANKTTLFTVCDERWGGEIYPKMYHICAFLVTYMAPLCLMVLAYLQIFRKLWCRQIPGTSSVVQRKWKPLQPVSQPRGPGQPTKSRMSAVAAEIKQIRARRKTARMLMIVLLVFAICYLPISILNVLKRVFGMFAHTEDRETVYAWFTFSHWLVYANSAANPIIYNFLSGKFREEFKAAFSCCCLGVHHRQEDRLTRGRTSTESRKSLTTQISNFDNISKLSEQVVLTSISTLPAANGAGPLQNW
Method: β-Arrestin recruitment activity was measured by using the PathHunter system (DiscoveRX) according to the manufacturer’s instruction. Receptor constructs used were the full-length wild-type (or mutant) human OX2R sequences cloned into pCMV-ProLink (DiscoveRX). CHO-K1 cells stably expressing EA β-arrestin2 (DiscoveRX) were plated on 384 well white plates (Thermo Fisher) at 4000 cells/well in HamF12 (Wako Pure Chemical Industries) supplemented with 10% fetal bovine serum (Corning) and penicillin-streptomycin (Wako Pure Chemical Industries) and incubated overnight at 37 °C under 5% CO2. Cells were transfected with plasmids encoding wild type or each mutant ProLink-tagged human OX2R using FuGENE HD (Promega). […] Detection reagent was added and incubated for 1 h at room temperature. Luminescent signal was detected using an EnVision plate reader (PerkinElmer). β-arrestin assays on different constructs were performed in two or three independent experiments (each done in quadruplicate). Dose response curves (shown in Supplementary Fig. 8) were fitted to the three-parameter model ‘log(agonist) vs response’ in GraphPad Prism to determine pEC50 values.

human OX2R wild type = molecular target: T2, human OX2R wild type (Homo sapiens, UniProt O43614); assay: Inositol phosphate accumulation assay for Gq signaling, OX2R WT; format: cell-based; parameters: FLAG; expressed in transfected cells; host or cells: HEK293; conditions: for Emax: normalized to OX2R WT Emax with the same ligand;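 for % IP accumulation: 100% equals the maximal response of wild-type OX2R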
T2 sequence (O43614 1-444): T1 sequence (O43614 1-444 F227A) with A227F
Source text: The IP assay was adapted from a prior precedent. HEK293 cells were maintained in DMEM-high glucose (Millipore Sigma) supplemented with 5% fetal bovine serum (Corning) and penicillin-streptomycin (Millipore Sigma). Receptor constructs used were the full-length wild-type (or mutant) human OX1R and OX2R sequences cloned into pCDNA3. To enhance the Emax in the IP assay, a plasmid encoding full-length human Gαq subunit[66] was co-transfected into HEK293 cells with plasmids encoding orexin receptor constructs using Lipofectamine 3000 (Thermo Fisher). 24 h after transfection, the cells were plated on poly-D-lysine coated (Millipore Sigma) tissue culture-treated 96 well white plates with clear bottoms (Perkin Elmer) at 30,000 cells per well in Inositol-free DMEM (MP Biomedicals) supplemented with 5% fetal bovine serum, 4 mM L-glutamine (Millipore Sigma), penicillin-streptomycin, and about 5 uCi (5 ul) per ml myo-[2-3H] inositol (Perkin Elmer). The following day, the media was replaced with agonists that were diluted in HBSS (Millipore Sigma) containing 10 mM lithium chloride (Millipore Sigma) and incubated at 37 °C for 45 min. Then agonists were removed and cells were lysed on ice for 30 min with 10 mM formic acid (Millipore Sigma). 1.25 mg of poly-lysine coated YSI SPA beads (Perkin Elmer) was added to each well. The plates were mixed on an orbital shaker for 30 min. The plates were read on a MicroBeta scintillation counter (Perkin Elmer) the following day. IP accumulation assays on different constructs were performed in n ≥ 3 independent experiments (each done in duplicate), where n is shown in Supplementary Table 2.

Compound | pEC50 (OX2R F227A; β-arrestin recruitment, read-out: EC50) | EC50 (OX2R F227A; β-arrestin recruitment, read-out: pEC50 (converted)) | pEC50 (human OX2R wild type; IP accumulation) | % IP accumulation (human OX2R wild type; TAK-925 conc (log, M) -10.25) | Emax (human OX2R wild type) | beta-arrestin recruitment fold change (OX2R F227A; OxB concentration -6.00 (log, M)) | beta-arrestin recruitment fold change (OX2R F227A; OxB concentration -6.52 (log, M)) | beta-arrestin recruitment fold change (OX2R F227A; OxB concentration -7.00 (log, M)) | beta-arrestin recruitment fold change (OX2R F227A; OxB concentration -7.52 (log, M)) | beta-arrestin recruitment fold change (OX2R F227A; OxB concentration -8.00 (log, M)) | beta-arrestin recruitment fold change (OX2R F227A; OxB concentration -8.52 (log, M)) | beta-arrestin recruitment fold change (OX2R F227A; OxB concentration -9.00 (log, M)) | beta-arrestin recruitment fold change (OX2R F227A; OxB concentration -10.00 (log, M)) | % IP accumulation (human OX2R wild type; OXB conc (log, M) -6.47712, listed as OXB) | % IP accumulation (human OX2R wild type; OXB conc (log, M) -10.29, listed as OXB)
COC(=O)N1CCC[C@H](NS(C)(=O)=O)[C@@H]1CO[C@H]1CC[C@@H](c2ccccc2)CC1 [TAK-925, methyl (2R,3S)−3-[(methylsulfonyl)amino]−2-{[(cis−4-phenylcyclohexyl)oxy]methyl}piperidine-1-carboxylate] | < 4.52 | > 30.2 µM | 8.12 | 0.00% | 100 |  |  |  |  |  |  |  |  |  | 
orexin B |  |  |  |  | 100 | 9.362 fold and 8.115 fold and 7.068 fold and 6.668 fold | 5.797 fold and 5.207 fold and 4.992 fold and 3.983 fold | 2.141 fold and 2.264 fold and 1.690 fold and 2.115 fold | 0.997 fold and 1.239 fold and 0.840 fold and 1.032 fold | 0.797 fold and 0.852 fold and 0.855 fold and 0.772 fold | 0.707 fold and 0.923 fold and 0.738 fold and 0.787 fold | 0.670 fold and 0.812 fold and 0.735 fold and 0.836 fold | 0.813 fold and 0.979 fold and 0.709 fold and 0.989 fold | 93.64% and 92.82% and 91.17% and 95.11% and 103.46% | 0.00% and 0.37% and 3.64%
